From PubChem BioAssay (NCI)
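Cultured in 96-well plates, cells were exposed to test compound for 48 hours across five concentrations. At the TGI there is no net growth.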

Key:
Test in all cases: NCI tumour cell line growth inhibition, 48 h
[1] = tested on: DLD-1 colon
[2] = tested on: M19-MEL melanoma
[3] = tested on: DMS 273 small cell lung
[4] = tested on: P388 leukemia
[5] = tested on: SN12K1 renal
[6] = tested on: LXFL 529 NSCLC
[7] = tested on: SNB-78 CNS
[8] = tested on: DMS 114 small cell lung
[9] = tested on: P388/ADR leukemia
[10] = tested on: RXF-631 renal

Compound	TGI [1] [µM]	TGI [2] [µM]	TGI [3] [µM]	TGI [4] [µM]	TGI [5] [µM]	TGI [6] [µM]	TGI [7] [µM]	TGI [8] [µM]	TGI [9] [µM]	TGI [10] [µM]
COc1cc(C2c3cc4c(cc3[C@@H](Oc3ccc(F)cc3)C3COC(=O)[C@H]23)OCO4)cc(OC)c1O (some centres undefined)	> 100	40.4	47.2	> 21.2	> 100					
O=C(OC/C=C1C=C(OC(=O)c2ccccc2)/C(=N/N(C(=O)c2ccccc2)c2ccccc2)O\1)c1ccccc1	10.6	18.8	24.1			4.4	67.1	28.3		
COc1ccc(C2C3CCCC(C3=O)C(c3ccc(OC)cc3)N2N=O)cc1 (centres undefined)	> 100	99.2	43.6	42.9	> 79.6		> 100	47.9	38.3	
OC12c3ccccc3C3CCC4(OCCO4)C3C1c1ccccc12 (centres undefined)	> 100	> 100	> 100			> 100	> 100	> 100		
COc1ccc2[nH]c3c(C)cc([N+](=O)[O-])c(C)c3c2c1	72.7	45.1	45.4			> 100		58.3		
COc1ccc(C(=O)N/N=C/c2c(C)n(C)n(-c3ccccc3)c2=O)cc1	> 100	> 100	> 100			> 100	> 100	> 100		
CC(CN(C)C)C(=O)c1ccccc1 (centres undefined)	32.6	35.4	> 100			39.8	> 64	> 57.8		> 100
CCn1c2c(c3ccccc31)C(c1ccccc1)CC1C(=O)N(c3ccccc3)C(=O)C21 (centres undefined)	> 100	> 100	> 100			> 100	> 100	> 100		
